Data from patent publication US4605672A, “Diethylaminoalkoxybenzhydrol derivatives, process for their preparation and pharmaceutical compositions containing them” (Richter Gedeon Vegyeszeti Gyar Rt., priority 1982, dated 1986).

Columns and labels:
ethanolic narcosis [1] = assay: Ethanolic narcosis period (ethanol 3.5 g./kg. i.p.); type: in vivo, Wistar rats; conditions: 1 h before ethanol 3.5 g./kg. i.p., n=10, control = 100 ± 6.5
Description: The effect of the compounds according to the invention on ethanolic narcosis was tested on male and female Wistar rats, each weighing 160 to 180 g., in groups of 10. The animals were fasted for 16 hours prior to treatment and were then administered various doses of the test compound, orally. One hour after treatment the rats were treated with 3.5 g./kg. of ethanol intraperitoneally (i.p.). The narcosis period of the animals was measured from the elapse of the righting reflex until a spontaneous correction of the body position. The average of the narcosis period and the percentage difference from the control were calculated. […] The control group was treated with a placebo and a […]. dose of ethanol.

[2] = test system: catalepsy induced by tetrabenazine; assay: Inhibition of catalepsy induced by tetrabenazine; type: in vivo, Hann.-Wistar rats; conditions: Rattus norvegicus, po; rats; orally, 60 minutes before tetrabenazine 30 mg./kg. i.p.; probit analysis
Description: (§1) To determine the antidepressive activity of the compounds provided by the invention the inhibition of catalepsy induced by tetrabenazine and the inversion of hypothermia induced by reserpin were measured. The anticholinergic activity was tested by determining the inhibition of tremor induced by oxotremorin. As a reference compound imipramine was used.

[3] = test system: tremor induced by oxotremorin; assay: Anticholinergic activity: inhibition of tremor induced by oxotremorin; type: in vivo, male CFLP mice; conditions: mice, oral; for ED50: Mus musculus, oxotremorin 0.5 mg./kg. i.p., read-out: Oxotremorin inh. (ED50); for Oxotremorin inh. (result in words): remark to the printed 160.0 mg./kg.
Description: as §1
The anticholinergic activity was tested on male CFLP mice, weighing 18 to 22 g. each, which were treated with a 0.5 mg./kg. dose of oxotremorin (i.p.) and after 60 minutes with various oral doses of the test compounds.

Acute toxicity = conditions: rat, in vivo; rats; single 500 mg./kg. oral dose; observed for 14 hours; read-out: Toxicity, dead animals (%)
Description: The acute toxicity of the compounds according to the invention was determined on Hann.-Wistar rats of both sexes, weighing 160 to 180 g. each, which had been treated with a single 500 mg./kg. dose of the test compounds, orally. […] In Table 4 the percentage of the dead animals is given.

[4] = test system: hypothermia induced by reserpin; assay: Inversion of reserpin-hypothermia (antireserpin activity); type: in vivo, male CFLP mice; conditions: Mus musculus, po; mice; orally, 16 hours after reserpin 5 mg./kg. i.p.; dose increasing body temperature by 50%
Description: as §1
The inversion of reserpin-hypothermia was tested on male CFLP mice, weighing 18 to 22 g. each and treated with a 5 mg./kg. dose of reserpin intraperitoneally. 16 hours after treatment the animals were administered various doses of the test compounds, orally. The rectal temperature of the animals was measured before the reserpin treatment, 16 hours after treatment and 2 hours after the administration of the test compounds.

ethanolic narcosis [5] = conditions: known effect of the reference material; cited from earlier work
[6] = test system: hyperactivity induced by ethanol; assay: Hyperactivity induced by ethanol (locomotor activity, Animex BSE motimeter); type: in vivo, BALB/c mice; conditions: n=15
Description: The effect of the compounds on hyperactivity induced by ethanol was tested on male and female BALB/c mice, each weighing 16 to 18 g. The test materials were administered to groups of 15 orally, one hour before administering the placebo orally or a 2 g./kg. dose of ethanol intraperitoneally. The control animals were treated with the placebo. The locomotor activity of the animals was measured for two hours, using an Animex BSE motimeter.

ethanolic ataxia = assay: Ethanolic ataxia and muscular tension on rotating rod; type: in vivo, BALB/c mice; conditions: n=10
Description: The effect of the compounds according to the invention on ethanolic ataxia and the change of muscular tension was tested on rotating rods. Trained and selected male and female BALB/c mice weighing 16 to 18 g. each were administered a 40 mg./kg. oral dose of the test compounds one hour before intraperitoneal administration of 2.5 g./kg. of ethanol. The time until the animals could remain on the rod was measured 60, 90 and 120 minutes after the ethanolic treatment. This time was 120 minutes for the animals with intact coordination. The results are summarized in Table 3, where the percentage of the animals remaining on the rotating rod is indicated.

| Structure (SMILES) | Ethanolic narcosis period (Control ± S.E. %) (ethanolic narcosis [1]; 10.0 mg./kg. orally) [%] | Ethanolic narcosis period (Control ± S.E. %) (ethanolic narcosis [1]; 40.0 mg./kg. orally) [%] | ED50 [2] [mg/kg] | ED50 [3] [mg/kg] | Oxotremorin inh. (result in words) [3] | mortality at 14 h (Acute toxicity) [%] | ED50 [4] [mg/kg] | also measured |
| --- | --- | --- | --- | --- | --- | --- | --- | --- |
| CCN(CC)CCCOc1ccc(C(O)(CC)c2cccc(C(F)(F)F)c2)cc1 (stereo not drawn) [A, 3-trifluoromethyl-4'-[3-(diethylamino)-propoxy]-α-ethyl-benzhydrol] | 52 ± 11.1 | 40 ± 5.0 | – | – | – | – | – | – |
| CCN(CC)CCOc1ccc(C(O)(CC)c2ccc(C(F)(F)F)cc2)cc1 (stereo not drawn) [C, 4-trifluoromethyl-4'-[2-(diethylamino)-ethoxy]-α-ethyl-benzhydrol] | – | – | 20 | 160 | ineffective | 0 | 30 | – |
| N[C@@H](CS)C(=O)O [L-cysteine, reference compound] | – | – | – | – | – | – | – | Ethanolic narcosis period (Control ± S.E. %) (ethanolic narcosis [1]; 500.0 mg./kg. orally): 63 ± 4.2%; alcoholic narcosis reducing effect (ethanolic narcosis [5]): known to have an alcoholic narcosis reducing effect |
| CN(C)CCCN1c2ccccc2CCc2ccccc21 [Imipramine, reference compound] | – | – | 13.7 | 50 | – | 80 | 15 | – |
| CCN(CC)CCCOc1ccc(C(O)(CC)c2cccc(Cl)c2)cc1 (stereo not drawn) [D, 3-chloro-4'-[3-(diethylamino)-propoxy]-α-ethyl-benzhydrol] | – | – | 18.8 | 160 | ineffective | 0 | 17 | – |
| CCN(CC)CCOc1ccc(C(O)(CC)c2ccc(Cl)cc2)cc1 (stereo not drawn) [B, 4-chloro-4'-[2-(diethylamino)-ethoxy]-α-ethyl-benzhydrol] | 48 ± 9.5 | 39 ± 4.5 | – | – | – | – | – | Locomotor activity (2 hours) ([6]; compound 10.0 mg./kg. orally + ethanol 2000.0 mg./kg. i.p., ethanol + placebo 190 ± 12.2): 110 ± 8.1 percentage of the control; Locomotor activity (2 hours) ([6]; compound 10.0 mg./kg. orally + placebo (no ethanol), placebo control 100 ± 8.1): 110 ± 15.2 percentage of the control; % of the animals remaining on the rod (ethanolic ataxia; compound 40.0 mg./kg. orally + ethanol 2500.0 mg./kg. i.p., 60 minutes, ethanol alone 10): 40%; % of the animals remaining on the rod (ethanolic ataxia; compound 40.0 mg./kg. orally + ethanol 2500.0 mg./kg. i.p., 90 minutes, ethanol alone 40): 70%; % of the animals remaining on the rod (ethanolic ataxia; compound 40.0 mg./kg. orally + ethanol 2500.0 mg./kg. i.p., 120 minutes, ethanol alone 50): 90%; % of the animals remaining on the rod (ethanolic ataxia; compound 40.0 mg./kg. orally, no ethanol, 60 minutes): 100%; % of the animals remaining on the rod (ethanolic ataxia; compound 40.0 mg./kg. orally, no ethanol, 90 minutes): 100%; % of the animals remaining on the rod (ethanolic ataxia; compound 40.0 mg./kg. orally, no ethanol, 120 minutes): 100% |
